In US11932624B2, “MDM2 degraders and uses thereof” (Kymera Therapeutics, Inc., priority 2020, dated 2024):

Tested on: RS411 cells
Assay: Cell Viability CTG Assay (CellTiter Glo) in RS411 cells
Format: cell-based
Conditions: Homo sapiens, RS4-11, 24 h, duration 1 day
How it was run: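 RS411 cells at 1000 cells/well were exposed to compound (top final 10 μM, 3-fold, 11 doses; 0.2% DMSO) at 37 °C, 5% CO2 for 1-4 days. Viability was read by CellTiter Glo luminescence after 10 min at RT. IC50 is reported as letter-code bins.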

Structure (SMILES)	IC50 [nM]
COc1cc2c(cc1OC(C)C)C(c1ccc(Cl)cc1)N(c1ccc(N(C)C(=O)C3CCN(CCCCCCc4ccc5c(c4)n(C)c(=O)n5C4CCC(=O)NC4=O)CC3)cc1)C(=O)C2 (stereo not shown) [I-209]	> 1000
CN(CCCCCc1ccc2c(c1)n(C)c(=O)n2C1CCC(=O)NC1=O)Cc1ccc(NC(=O)[C@@H]2NC3(CCCCC3)[C@@]3(C(=O)Nc4cc(Cl)ccc43)[C@H]2c2cccc(Cl)c2F)c2c1OCCO2 (stereo partly shown) [I-210]	< 50
COc1cc2c(cc1OC(C)C)[C@H](c1ccc(Cl)cc1)N(c1ccc(N(C)C[C@H]3CC[C@H](N4CCN(CCc5ccc6c(c5)n(C)c(=O)n6C5CCC(=O)NC5=O)CC4)CC3)cc1)C(=O)C2 (stereo partly shown) [I-211]	< 50
COc1cc2c(cc1OC(C)C)C(c1ccc(Cl)cc1)N(c1ccc(N(C)C[C@H]3CC[C@H](N(C)CCCCc4ccn5c(N6CCC(=O)NC6=O)cnc5c4)CC3)cc1)C(=O)C2 (stereo partly shown) [I-212]	> 1000
CNC(=O)c1ccc(N2C(=O)[C@H]3[C@H](c4cccc(Cl)c4F)[C@@](C#N)(c4ccc(Cl)cc4F)[C@H](CC(C)(C)C)N3C2CCCCCCCC#Cc2ccc3c(c2)n(C)c(=O)n3C2CCC(=O)NC2=O)c(OC)c1 (stereo partly drawn) [I-213, 4-[(5S,6R,7S,7aR)-7-(3-chloro-2-fluoro-phenyl)-6-(4-chloro-2-fluoro-phenyl)-6-cyano-5-(2,2-dimethylpropyl)-3-[9-[1-(2,6-dioxo-3-piperidyl)-3-methyl-2-oxo-benzimidazol-5-yl]non-8-ynyl]-1-oxo-3,5,7,7a-tetrahydropyrrolo[1,2-c]imidazol-2-yl]-3-methoxy-N-methyl-benzamide]	> 1000
Cn1c(=O)n(C2CCC(=O)NC2=O)c2ccc(C#CCCCCCCCCN3[C@@H](C(=O)Nc4ccc(C(=O)O)cc4)[C@H](c4cccc(Cl)c4F)[C@]4(C(=O)Nc5cc(Cl)ccc54)C34CCCCC4)cc21 (stereo partly drawn) [I-214, 4-((3′R,4'S,5′R)-6″-chloro-4′-(3-chloro-2-fluorophenyl)-1′-(10-(1-(2,6-dioxopiperidin-3-yl)-3-methyl-2-oxo-2,3-dihydro-1H-benzo[d]imidazol-5-yl)dec-9-yn-1-yl)-2″-oxodispiro[cyclohexane-1,2′-pyrrolidine-3′,3″-indoline]-5′-carboxamido)benzoic acid]	50 to 100
Cn1c(=O)n(C2CCC(=O)NC2=O)c2ccc(C#CCCCCCN3CCC(NC(=O)[C@@H]4NC5(CCCCC5)[C@@]5(C(=O)Nc6cc(Cl)ccc65)[C@H]4c4cccc(Cl)c4F)CC3)cc21 (stereo partly shown) [I-224]	< 50
